Data published in patent publication US9193722B2, “Tri-cyclic pyrazolopyridine kinase inhibitors” (Vertex Pharmaceuticals Incorporated, priority 2008, dated 2015).

How the values were obtained:
Type in all cases: biochemical
PKC alpha kinase = PKC alpha kinase (Homo sapiens, UniProt P17252); assay: PKC alpha kinase inhibition, coupled-enzyme (NADH absorbance) assay, Ki; details: 130 μM ATP, 4.5 nM PKC alpha kinase, 30° C.
Procedure, shortened: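 Enzyme in 100 mM HEPES pH 7.5, 10 mM MgCl2, 100 μM CaCl2, 0.01% Brij, preincubated with compound 10 min at 30 °C. Reaction started with 130 μM ATP (final); NADH consumption followed at 340 nm for 15 min at 30 °C. Ki fitted by non-linear regression of initial rates.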

PKC theta kinase = PKC theta kinase (Homo sapiens, UniProt Q04759); assay: PKC theta kinase inhibition, coupled-enzyme (NADH absorbance) assay, Ki; details: 240 μM ATP, 18 nM PKC theta kinase, 30° C.
Procedure, shortened: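 Coupled-enzyme kinase assay following NADH absorbance at 340 nm, in 100 mM HEPES pH 7.5, 10 mM MgCl2, 25 mM NaCl, 0.1 mM EDTA, 0.01% Brij. Compound in DMSO preincubated with enzyme 10 min at 30 °C. Ki from initial rates by non-linear regression.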

PKC delta kinase = PKC delta kinase (Homo sapiens, UniProt Q05655); assay: PKC delta kinase inhibition, coupled-enzyme (NADH absorbance) assay, Ki; details: 150 μM ATP, 46 nM PKC delta kinase, 30° C.; read-out: Ki PKC delta
Procedure, shortened: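 PKC delta in 100 mM HEPES pH 7.5, 10 mM MgCl2, 25 mM NaCl, 0.1 mM EDTA, 0.01% Brij, equilibrated 10 min at 30° C with compound from DMSO stock. Started with ATP at 150 μM final; NADH-coupled absorbance at 340 nm followed 15 min at 30° C. Ki from initial rates by non-linear regression.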

Chain of PKC theta kinase (Q04759 whole entry): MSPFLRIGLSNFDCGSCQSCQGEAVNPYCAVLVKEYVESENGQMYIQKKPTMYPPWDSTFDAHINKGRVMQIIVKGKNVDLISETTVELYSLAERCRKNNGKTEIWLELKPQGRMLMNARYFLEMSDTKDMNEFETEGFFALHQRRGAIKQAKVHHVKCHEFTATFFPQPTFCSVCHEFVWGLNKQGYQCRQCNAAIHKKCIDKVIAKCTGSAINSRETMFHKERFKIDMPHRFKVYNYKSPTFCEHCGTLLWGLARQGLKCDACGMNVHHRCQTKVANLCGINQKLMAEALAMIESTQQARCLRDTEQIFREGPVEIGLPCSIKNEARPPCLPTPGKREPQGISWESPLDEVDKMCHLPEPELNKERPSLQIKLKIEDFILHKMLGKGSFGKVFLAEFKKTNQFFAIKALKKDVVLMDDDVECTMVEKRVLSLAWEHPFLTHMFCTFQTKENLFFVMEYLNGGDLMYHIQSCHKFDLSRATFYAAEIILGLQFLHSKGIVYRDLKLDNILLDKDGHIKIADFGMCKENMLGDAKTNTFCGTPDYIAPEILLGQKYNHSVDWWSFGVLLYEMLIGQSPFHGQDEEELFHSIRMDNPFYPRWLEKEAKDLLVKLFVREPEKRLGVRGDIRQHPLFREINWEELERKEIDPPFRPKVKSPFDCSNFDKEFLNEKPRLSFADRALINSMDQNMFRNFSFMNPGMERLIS
Chain of PKC delta kinase (Q05655 whole entry): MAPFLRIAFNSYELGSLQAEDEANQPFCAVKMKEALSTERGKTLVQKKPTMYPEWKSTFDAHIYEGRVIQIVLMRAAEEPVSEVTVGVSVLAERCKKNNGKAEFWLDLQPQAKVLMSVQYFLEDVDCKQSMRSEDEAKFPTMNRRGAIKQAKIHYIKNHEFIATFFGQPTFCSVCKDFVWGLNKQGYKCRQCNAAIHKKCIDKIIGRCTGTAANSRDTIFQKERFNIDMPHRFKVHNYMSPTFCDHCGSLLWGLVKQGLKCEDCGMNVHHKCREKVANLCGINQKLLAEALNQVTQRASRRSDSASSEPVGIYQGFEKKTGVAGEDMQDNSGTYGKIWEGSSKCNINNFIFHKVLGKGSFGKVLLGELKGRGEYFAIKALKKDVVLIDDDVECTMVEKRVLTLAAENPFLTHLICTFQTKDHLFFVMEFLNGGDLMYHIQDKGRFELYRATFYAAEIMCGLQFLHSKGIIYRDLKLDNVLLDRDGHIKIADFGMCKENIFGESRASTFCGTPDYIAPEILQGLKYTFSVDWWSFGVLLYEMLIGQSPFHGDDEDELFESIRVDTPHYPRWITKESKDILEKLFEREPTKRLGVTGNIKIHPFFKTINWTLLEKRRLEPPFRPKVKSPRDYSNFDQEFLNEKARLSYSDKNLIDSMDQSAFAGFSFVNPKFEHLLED

| Ki (PKC alpha kinase) | Ki (PKC theta kinase) | Ki (PKC delta kinase) | SMILES |
| --- | --- | --- | --- |
| > 1250 nM | < 50 nM | > 1250 nM | CC(C)C[C@H]1CN(c2ccc(C(F)(F)F)c(-c3n[nH]c4ncccc34)n2)CCN1 [Compound 4, (S)-3-(6-(3-isobutylpiperazin-1-yl)-3-(trifluoromethyl)pyridin-2-yl)-1H-pyrazolo[3,4-b]pyridine] |
| > 1250 nM | > 700 nM | > 1250 nM | CC(C)CC1(CN)CN(c2ccc(C(F)(F)F)c(-c3n[nH]c4ncccc34)n2)C1 [Compound 413] |
| > 1250 nM | < 500 nM | > 1250 nM | CNC(C1CCCN(c2ccc(F)c(-c3n[nH]c4ncccc34)n2)C1)C(C)(C)C (stereo not drawn) [Compound 408] |
| < 2800 nM | < 500 nM | < 2800 nM | CO[C@H]1CN(c2ccc(F)c(-c3n[nH]c4ncccc34)n2)CC[C@H]1N [Compound 389] |
| > 1250 nM | > 700 nM | > 1250 nM | CCOC(=O)N1CCN(c2ccc(F)c(-c3n[nH]c4ncccc34)n2)CC1C(C)(O)C(C)C (stereo not drawn) [Compound 418] |
| > 1250 nM | < 500 nM | > 1250 nM | NCC1CCN(c2ccc(F)c(-c3n[nH]c4ncccc34)n2)C1 (stereo not drawn) [Compound 289] |
| > 1250 nM | < 500 nM | > 1250 nM | CC(C)CC1CN(c2cc(C(F)(F)F)cc(-c3n[nH]c4ncccc34)n2)CCC1N (stereo not drawn) [Compound 419] |
| > 1250 nM | > 700 nM | > 1250 nM | OC1(C2CN(c3ccc(C(F)(F)F)c(-c4n[nH]c5ncccc45)n3)CCN2)COC1 (stereo not drawn) [Compound 233] |
| > 1250 nM | < 500 nM | < 2800 nM | NC1CCN(c2ccc(C(F)(F)F)c(-c3n[nH]c4ncccc34)n2)CC12CCOCC2 (stereo not drawn) [Compound 462] |
| > 1250 nM | > 700 nM | > 1250 nM | CC(C)CC1(C#N)CCN(c2ccc(C(F)(F)F)c(-c3n[nH]c4ncccc34)n2)CC1 [Compound 446] |
| < 2800 nM | < 50 nM | < 500 nM | CC(C)CC1(C)CN(c2nc(-c3n[nH]c4ncccc34)ccc2F)CCN1 (stereo not drawn) [Compound 132] |
| > 1250 nM | < 50 nM | < 2800 nM | CC(C)C(O)(C1CN(c2ccc(F)c(-c3n[nH]c4ncccc34)n2)CCN1)C(F)(F)F (stereo not drawn) [Compound 207] |
| < 2800 nM | < 1 nM | < 50 nM | CC(C)C(C)(O)C1CN(c2cccc(-c3n[nH]c4ncccc34)n2)CCN1 (stereo not drawn) [Compound 177] |
| < 500 nM | < 50 nM | < 500 nM | N#CC1(c2cccc(-c3n[nH]c4ncccc34)n2)CCNCC1 [Compound 234] |
| > 1250 nM | < 500 nM | < 2800 nM | FC(F)(F)C1CN(c2cccc(-c3n[nH]c4ncccc34)n2)CCN1 (stereo not drawn) [Compound 25] |
| > 1250 nM | < 500 nM | > 1250 nM | FC(F)(F)c1ccc(N2CCN[C@@H](CC3CC3)C2)nc1-c1n[nH]c2ncccc12 [Compound 165] |
| > 1250 nM | < 50 nM | < 500 nM | CC(N)[C@H]1CCCN(c2ccc(F)c(-c3n[nH]c4ncccc34)n2)C1 (stereo partly drawn) [Compound 262] |
| > 1250 nM | < 50 nM | < 2800 nM | CC(C)CC1(O)CN(c2ccc(C(F)(F)F)c(-c3n[nH]c4ncccc34)n2)CCC1C#N (stereo not drawn) [Compound 401] |
| > 1250 nM | > 700 nM | > 1250 nM | CCC[C@H]1CN(c2ccc(C(F)(F)F)c(-c3n[nH]c4ncccc34)n2)C[C@H]1N [Compound 340] |
| < 2800 nM | < 500 nM | > 2000 nM | Cc1cccc(C2CN(c3cccc(-c4n[nH]c5ncccc45)n3)CCN2)c1 (stereo not drawn) [Compound 16] |
| < 2800 nM | < 50 nM | < 500 nM | CCC(O)(CC)C1CN(c2cccc(-c3n[nH]c4ncccc34)n2)CCN1 (stereo not drawn) [Compound 154] |
| < 2800 nM | < 500 nM | > 1250 nM | FC(F)(F)c1ccc(N2CCNC(c3cccc(Br)c3)C2)nc1-c1n[nH]c2ncccc12 (stereo not drawn) [Compound 172] |
| < 2800 nM | < 50 nM | < 500 nM | CCC(C)(O)C1CN(c2ccc(F)c(-c3n[nH]c4ncccc34)n2)CCN1 (stereo not drawn) [Compound 241] |
| > 1250 nM | < 500 nM | > 1250 nM | CCC(C)(O)C1CN(c2ccc(F)c(-c3n[nH]c4ncccc34)n2)CCN1 (stereo not drawn) [Compound 243] |
| > 1250 nM | < 50 nM | > 1250 nM | CC(C)CC1CN(c2ccc(F)c(-c3n[nH]c4ncccc34)n2)CCC1CC#N (stereo not drawn) [Compound 452] |
| > 1250 nM | < 50 nM | < 500 nM | CC(C)(C)C(N)C1CCN(c2ccc(F)c(-c3n[nH]c4ncccc34)n2)C1 (stereo not drawn) [Compound 421] |

| Ki (PKC alpha kinase) | Ki (PKC theta kinase) | Ki (PKC delta kinase) | SMILES |
| --- | --- | --- | --- |
| < 2800 nM | < 50 nM | < 2800 nM | Fc1cccc(C2CN(c3ccc(C(F)(F)F)c(-c4n[nH]c5ncccc45)n3)CCN2)c1 (stereo not drawn) [Compound 115] |
| > 1250 nM | < 500 nM | > 1250 nM | Cc1ccccc1C1CN(c2ccc(C(F)(F)F)c(-c3n[nH]c4ncccc34)n2)CCN1 (stereo not drawn) [Compound 124] |
| > 1250 nM | > 700 nM | > 1250 nM | FC(F)(F)c1ccc(N2CCNC(c3ccc(Cl)cc3)C2)nc1-c1n[nH]c2ncccc12 (stereo not drawn) [Compound 173] |
| < 500 nM | < 50 nM | < 500 nM | CCC1(CC(C)C)CN(c2ccc(C(F)(F)F)c(-c3n[nH]c4ncccc34)n2)CCC1N (stereo not drawn) [Compound 434] |
| > 1250 nM | < 500 nM | > 1250 nM | FC(F)(F)c1ccnc2[nH]nc(-c3cccc(N4CCNCC4)n3)c12 [Compound 191] |
| > 1250 nM | < 500 nM | < 2800 nM | OCc1cc(-c2n[nH]c3ncccc23)nc(N2CCNCC2)c1 [Compound 443] |
| > 1250 nM | > 700 nM | > 1250 nM | FC(F)(F)c1ccc(N2CCC(Nc3ccccc3)CC2)nc1-c1n[nH]c2ncccc12 [Compound 358] |
| > 1250 nM | < 50 nM | < 500 nM | CC(C)(F)CC1CN(c2cccc(-c3n[nH]c4ncccc34)n2)CCN1 (stereo not drawn) [Compound 71] |
| > 1250 nM | < 500 nM | > 1250 nM | CC(C)C(C)(O)[C@H]1CCCN(c2ccc(F)c(-c3n[nH]c4ncccc34)n2)C1 (stereo partly drawn) [Compound 277] |
| < 2800 nM | < 1 nM | < 50 nM | CC(C)C(C)(O)C1CN(c2nc(-c3n[nH]c4ncccc34)ccc2F)CCN1 (stereo not drawn) [Compound 329] |
| < 500 nM | < 1 nM | < 50 nM | CC(C)C(C)(O)C1CN(c2nc(-c3n[nH]c4ncccc34)ccc2F)CCN1 (stereo not drawn) [Compound 373] |
| < 2800 nM | < 50 nM | < 500 nM | CC(C)C(O)C1CN(c2ccc(F)c(-c3n[nH]c4ncccc34)n2)CCN1 (stereo not drawn) [Compound 252] |
| < 2800 nM | < 500 nM | < 500 nM | OCC1CN(c2cccc(-c3n[nH]c4ncccc34)n2)CCN1 (stereo not drawn) [Compound 153] |
| < 500 nM | < 1 nM | < 10 nM | CC(C)C(C)(O)C1CN(c2nc(-c3n[nH]c4ncccc34)ccc2F)CCN1 (stereo not drawn) [Compound 328] |
| > 1250 nM | < 50 nM | < 2800 nM | C=C(F)c1cc(-c2n[nH]c3ncccc23)nc(N2CCN[C@@H](CC(C)C)C2)c1 [Compound 55] |
| > 1250 nM | < 50 nM | < 500 nM | CC(O)C1CN(c2cccc(-c3n[nH]c4ncccc34)n2)CCN1 (stereo not drawn) [Compound 164] |
| > 1250 nM | < 50 nM | < 500 nM | CC(C)(F)CC1CN(c2ccc(F)c(-c3n[nH]c4ncccc34)n2)CCN1 (stereo not drawn) [Compound 151] |
| > 1250 nM | < 50 nM | > 1250 nM | CCCC1CN(c2ccc(C(F)(F)F)c(-c3n[nH]c4ncccc34)n2)CCN1 (stereo not drawn) [Compound 113] |
| > 1250 nM | > 700 nM | > 1250 nM | NC[C@@H]1CCCN1c1ccc(F)c(-c2n[nH]c3ncccc23)n1 [Compound 355] |
| > 1250 nM | > 700 nM | > 1250 nM | CN(C)C(=O)C1CN(c2ccc(C(F)(F)F)c(-c3n[nH]c4ncccc34)n2)CCN1 (stereo not drawn) [Compound 215] |
| > 1250 nM | < 500 nM | < 500 nM | CC(C)C[C@H]1CN(c2cc(C#N)cc(-c3n[nH]c4ncccc34)n2)CCN1 [Compound 442] |
| < 2800 nM | < 50 nM | < 500 nM | CCC(N)C1CCCN(c2ccc(F)c(-c3n[nH]c4ncccc34)n2)C1 (stereo not drawn) [Compound 291] |
| > 1250 nM | > 700 nM | > 1250 nM | CC(C)CC1(C(N)=O)CN(c2ccc(C(F)(F)F)c(-c3n[nH]c4ncccc34)n2)C1 [Compound 430] |
| > 1250 nM | > 700 nM | > 1250 nM | CC(C)C[C@H]1CN(c2ccc(C(F)(F)F)c(-c3n[nH]c4ncccc34)n2)C[C@H](C)N1 [Compound 202] |
| > 1250 nM | > 700 nM | > 1250 nM | OC1CCCN(c2ccc(C(F)(F)F)c(-c3n[nH]c4ncccc34)n2)C1 (stereo not drawn) [Compound 423] |
| > 1250 nM | > 700 nM | > 1250 nM | NCC1CCN(c2ccc(C(F)(F)F)c(-c3n[nH]c4ncccc34)n2)CC1 [Compound 127] |
